Experimental data from the supplement of paper PMC10307832.

Assays:
Assay in all cases: relative viability (nuclei count vs DMSO), 5 days (fraction); higher = more cells survive
Bexarotene = compound: C=C(c1ccc(C(=O)O)cc1)c1cc2c(cc1C)C(C)(C)CCC2(C)C [Bexarotene]
In short: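 Viability was defined as treated-well nuclei divided by vehicle-well nuclei, with the median taken over replicate plates. Cells from lung cancer lines sat overnight at 37 °C in 1536-well plates, received five √10-spaced library-drug doses by pinning on vehicle-anchored plates, and grew 5 days without medium change before one-step fixation, permeabilisation and Hoechst staining, 4× imaging and MetaXpress nuclear counts. Only plates with control CV under 25% and at least one doubling were kept.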

Bexarotene + Palbociclib = compound: C=C(c1ccc(C(=O)O)cc1)c1cc2c(cc1C)C(C)(C)CCC2(C)C [Bexarotene] + CC(=O)c1c(C)c2cnc(Nc3ccc(N4CCNCC4)cn3)nc2n(C2CCCC2)c1=O [Palbociclib] (partner 0.5 µM)
In short: (§1)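 Five library-drug doses in √10 steps were combined with a fixed anchor-drug dose, or a single drug was given alone, by pin tool to lung cancer cell lines in 1536-well plates the day after seeding. Nuclei were stained and counted after 5 days. Relative viability is the nuclei count in treated wells over that in vehicle wells, taken as the median of duplicate plates.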

Bexarotene + Foretinib = compound: C=C(c1ccc(C(=O)O)cc1)c1cc2c(cc1C)C(C)(C)CCC2(C)C [Bexarotene] + COc1cc2c(Oc3ccc(NC(=O)C4(C(=O)Nc5ccc(F)cc5)CC4)cc3F)ccnc2cc1OCCCN1CCOCC1 [Foretinib] (partner 0.25 µM)
In short: as §1

Bexarotene + OSI-027 = compound: C=C(c1ccc(C(=O)O)cc1)c1cc2c(cc1C)C(C)(C)CCC2(C)C [Bexarotene] + COc1cccc2cc(-c3nc([C@H]4CC[C@H](C(=O)O)CC4)n4ncnc(N)c34)[nH]c12 [OSI-027] (partner 0.5 µM)
In short: as §1

Cell Line | relative viability (Bexarotene; 0.08 µM) | relative viability (Bexarotene; 0.253 µM) | relative viability (Bexarotene; 0.8 µM) | relative viability (Bexarotene; 2.53 µM) | relative viability (Bexarotene; 8 µM) | relative viability (Bexarotene + Palbociclib; first compound 0.08 µM) | relative viability (Bexarotene + Palbociclib; first compound 0.253 µM) | relative viability (Bexarotene + Palbociclib; first compound 0.8 µM) | relative viability (Bexarotene + Palbociclib; first compound 2.53 µM) | relative viability (Bexarotene + Palbociclib; first compound 8 µM) | relative viability (Bexarotene + Foretinib; first compound 0.08 µM) | relative viability (Bexarotene + Foretinib; first compound 0.253 µM) | relative viability (Bexarotene + Foretinib; first compound 0.8 µM) | relative viability (Bexarotene + Foretinib; first compound 2.53 µM) | relative viability (Bexarotene + Foretinib; first compound 8 µM) | relative viability (Bexarotene + OSI-027; first compound 0.08 µM) | relative viability (Bexarotene + OSI-027; first compound 0.253 µM) | relative viability (Bexarotene + OSI-027; first compound 0.8 µM) | relative viability (Bexarotene + OSI-027; first compound 2.53 µM) | relative viability (Bexarotene + OSI-027; first compound 8 µM)
NCI-H23 | 1.17 | 0.927 | 0.952 | 0.82 | 0.899 | 0.554 | 0.567 | 0.571 | 0.555 | 0.543 | 0.888 | 1.06 | 0.921 | 1.01 | 0.785 | 0.607 | 0.597 | 0.6 | 0.55 | 0.461
NCI-H322M | 1.08 | 1.03 | 0.937 | 0.988 | 1.01 | 0.437 | 0.469 | 0.487 | 0.531 | 0.532 | 1.06 | 1.14 | 0.946 | 0.977 | 0.978 | 0.698 | 0.351 | 0.637 | 0.585 | 0.623
NCI-H358 | 1.04 | 1.14 | 0.871 | 0.974 | 1.05 | 0.129 | 0.138 | 0.154 | 0.124 | 0.138 | 0.8 | 0.929 | 0.708 | 0.818 | 0.722 | 0.764 | 0.774 | 0.685 | 0.798 | 0.633
NCI-H441 | 1.31 | 1.1 | 1.04 | 0.969 | 1 | 0.295 | 0.228 | 0.256 | 0.243 | 0.23 | 1.01 | 1.04 | 1.13 | 0.841 | 0.927 | 0.763 | 0.67 | 0.645 | 0.585 | 0.672
NCI-H460 | 1.04 | 0.976 | 0.986 | 0.944 | 0.946 | 0.147 | 0.156 | 0.237 | 0.105 | 0.158 | 1.1 | 0.99 | 0.976 | 1.02 | 1.01 | 0.844 | 0.727 | 0.704 | 0.701 | 0.618
NCI-H520 | 1.06 | 0.869 | 0.865 | 0.852 | 0.972 | 0.271 | 0.182 | 0.198 | 0.229 | 0.207 | 0.854 | 0.678 | 0.652 | 0.812 | 0.727 | 0.238 | 0.207 | 0.276 | 0.222 | 0.241
NCI-H647 | 1.03 | 1.08 | 0.896 | 0.924 | 0.874 | 0.467 | 0.358 | 0.443 | 0.367 | 0.369 | 1.32 | 1.42 | 1.4 | 1.32 | 1.04 | 0.636 | 0.627 | 0.601 | 0.573 | 0.624
NCI-H650 | 1.19 | 1.03 | 0.986 | 0.822 | 0.919 | 0.306 | 0.286 | 0.294 | 0.311 | 0.339 | 0.974 | 0.995 | 0.958 | 0.991 | 0.996 | 0.516 | 0.521 | 0.523 | 0.485 | 0.494
NCI-H661 | 1.04 | 0.998 | 0.934 | 0.922 | 0.91 | 0.407 | 0.422 | 0.447 | 0.401 | 0.405 | 1.02 | 1.04 | 0.916 | 0.967 | 0.933 | 0.631 | 0.665 | 0.647 | 0.623 | 0.635
NCI-H727 | 0.961 | 0.978 | 0.916 | 1.05 | 1.04 | 0.683 | 0.578 | 0.595 | 0.696 | 0.711 | 1.09 | 1.12 | 0.875 | 0.859 | 0.808 | 0.63 | 0.657 | 0.478 | 0.465 | 0.612
NCI-H838 | 1.04 | 1.03 | 1.04 | 1.04 | 0.996 | 0.23 | 0.209 | 0.176 | 0.216 | 0.245 | 1.14 | 1.03 | 1.06 | 1.05 | 1.01 | 0.443 | 0.391 | 0.465 | 0.47 | 0.554
NCI-H1355 | 1.11 | 1.04 | 0.945 | 0.979 | 0.96 | 0.422 | 0.387 | 0.384 | 0.446 | 0.434 | 1 | 1.09 | 0.91 | 1.05 | 0.947 | 0.41 | 0.426 | 0.37 | 0.387 | 0.462
NCI-H1395 | 1.06 | 0.905 | 1.01 | 0.75 | 0.957 | 0.583 | 0.638 | 0.615 | 0.618 | 0.618 | 1.07 | 1.02 | 1.04 | 0.949 | 1.09 | 0.672 | 0.653 | 0.616 | 0.624 | 0.633
NCI-H1437 | 1.04 | 1.01 | 1.03 | 0.996 | 1.01 | 0.317 | 0.306 | 0.294 | 0.291 | 0.286 | 1.26 | 1.32 | 1.22 | 1.23 | 1.26 | 0.985 | 0.819 | 1.01 | 0.89 | 0.982
NCI-H1650 | 1.01 | 0.897 | 0.912 | 0.785 | 0.844 | 0.355 | 0.285 | 0.279 | 0.271 | 0.282 | 1.13 | 0.988 | 1.09 | 1.18 | 1.11 | 0.612 | 0.734 | 0.598 | 0.726 | 0.622
